Experimental data: patent US12187723B2 (BRISTOL-MYERS SQUIBB COMPANY, priority 2019, dated 2025)
pIC50: −log10 of the molar value.

Tests used:
[1] = biological target: T1, human TLR7 (Homo sapiens, UniProt Q9NYK1); experiment: TLR7 inhibition reporter assay (HEK-Blue SEAP); type: cell-based; conditions: HEK-Blue cells overexpressing human TLR7, gardiquimod 7.5 μM, 22 hour incubation
T1 construct: host or cells: HEK-Blue cells
T1 sequence (Q9NYK1 27-1049): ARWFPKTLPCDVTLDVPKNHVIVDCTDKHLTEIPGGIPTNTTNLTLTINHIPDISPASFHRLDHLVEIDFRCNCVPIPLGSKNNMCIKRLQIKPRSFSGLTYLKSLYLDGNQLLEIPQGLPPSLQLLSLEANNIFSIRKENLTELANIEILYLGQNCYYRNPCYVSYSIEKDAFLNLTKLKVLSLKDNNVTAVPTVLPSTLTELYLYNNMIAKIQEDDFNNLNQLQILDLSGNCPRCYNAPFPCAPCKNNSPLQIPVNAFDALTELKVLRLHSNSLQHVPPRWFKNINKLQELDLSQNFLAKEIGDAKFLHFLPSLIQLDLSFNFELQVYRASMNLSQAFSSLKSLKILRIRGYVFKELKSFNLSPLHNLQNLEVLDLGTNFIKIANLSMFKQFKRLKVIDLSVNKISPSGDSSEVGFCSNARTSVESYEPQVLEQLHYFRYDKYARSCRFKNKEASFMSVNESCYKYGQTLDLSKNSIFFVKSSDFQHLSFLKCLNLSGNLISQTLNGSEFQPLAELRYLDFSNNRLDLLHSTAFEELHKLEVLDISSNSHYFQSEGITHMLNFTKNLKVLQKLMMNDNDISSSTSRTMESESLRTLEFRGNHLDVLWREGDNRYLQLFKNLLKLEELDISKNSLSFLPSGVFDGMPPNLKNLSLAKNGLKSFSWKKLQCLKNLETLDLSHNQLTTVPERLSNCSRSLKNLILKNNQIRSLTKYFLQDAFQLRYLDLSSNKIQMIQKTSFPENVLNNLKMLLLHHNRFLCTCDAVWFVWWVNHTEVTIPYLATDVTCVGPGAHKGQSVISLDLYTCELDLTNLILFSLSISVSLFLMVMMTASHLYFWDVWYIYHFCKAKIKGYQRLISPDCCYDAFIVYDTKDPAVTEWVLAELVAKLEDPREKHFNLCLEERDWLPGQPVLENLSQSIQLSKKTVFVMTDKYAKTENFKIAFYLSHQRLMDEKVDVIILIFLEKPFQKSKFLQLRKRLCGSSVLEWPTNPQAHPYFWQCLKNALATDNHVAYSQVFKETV
Summary of the method: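 22 h, 37° C, 5% CO2 incubation; compounds 0.05 nM-50 μM final; TLR7 cells 15000/well, TLR8 20,000/well. Readout: SEAP via HEK-Blue Detection medium. % inhibition = signal reduction versus agonist + DMSO wells, referenced to known inhibitor.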

[2] = biological target: T2, human TLR8 (Homo sapiens, UniProt Q9NR97); experiment: TLR8 inhibition reporter assay (HEK-Blue SEAP); type: cell-based; conditions: HEK-Blue cells overexpressing human TLR8, R848 15.9 μM, 22 hour incubation
T2 construct: host or cells: HEK-Blue cells
T2 sequence (Q9NR97 27-1041): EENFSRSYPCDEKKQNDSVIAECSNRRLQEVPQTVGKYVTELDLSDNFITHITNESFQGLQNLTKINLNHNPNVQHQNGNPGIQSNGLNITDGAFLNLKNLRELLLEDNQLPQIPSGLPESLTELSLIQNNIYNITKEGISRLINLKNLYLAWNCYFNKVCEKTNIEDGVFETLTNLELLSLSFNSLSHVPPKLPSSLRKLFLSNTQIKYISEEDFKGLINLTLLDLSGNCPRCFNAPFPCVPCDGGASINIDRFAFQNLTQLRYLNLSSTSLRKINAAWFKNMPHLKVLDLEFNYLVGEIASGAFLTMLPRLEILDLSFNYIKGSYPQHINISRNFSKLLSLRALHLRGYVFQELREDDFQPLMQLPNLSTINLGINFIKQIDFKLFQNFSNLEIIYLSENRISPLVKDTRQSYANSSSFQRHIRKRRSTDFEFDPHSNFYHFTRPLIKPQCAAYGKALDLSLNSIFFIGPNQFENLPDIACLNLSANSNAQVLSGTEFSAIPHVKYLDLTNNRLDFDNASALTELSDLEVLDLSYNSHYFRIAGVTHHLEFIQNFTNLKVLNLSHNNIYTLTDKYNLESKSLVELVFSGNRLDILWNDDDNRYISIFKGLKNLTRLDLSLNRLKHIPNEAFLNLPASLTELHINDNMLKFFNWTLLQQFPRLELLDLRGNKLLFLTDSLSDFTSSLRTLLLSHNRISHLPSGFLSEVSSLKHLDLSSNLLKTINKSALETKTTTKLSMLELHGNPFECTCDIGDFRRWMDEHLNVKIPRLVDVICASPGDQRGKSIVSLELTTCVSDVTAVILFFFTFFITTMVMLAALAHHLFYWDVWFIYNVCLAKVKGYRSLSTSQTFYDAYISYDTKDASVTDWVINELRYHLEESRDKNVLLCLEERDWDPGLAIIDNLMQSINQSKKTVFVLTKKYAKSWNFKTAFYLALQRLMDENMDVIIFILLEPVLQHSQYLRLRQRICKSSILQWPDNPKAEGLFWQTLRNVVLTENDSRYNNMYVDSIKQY
Summary of the method: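 Compound treatment: 30 min, RT, 0.05 nM–50 μM final. Agonist: TLR7 gardiquimod 7.5 μM; TLR8 R848 15.9 μM; TLR9 ODN2006 5 nM. Incubation 22 h, 37 °C, 5% CO2. Readout SEAP, HEK-Blue Detection.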

| SMILES | pIC50 [1] | pIC50 [2] |
| --- | --- | --- |
| COc1cc(-c2cc3[nH]c(=O)n([C@H]4CC[C@@H](NCC(C)(C)C)CC4)c3cc2C(C)C)cn2ncnc12 [Example 197, 6-isopropyl-5-(8-methoxy-[1,2,4]triazolo[1,5-a]pyridin-6-yl)-1-((1s,4s)-4-(neopentylamino)cyclohexyl)-1,3-dihydro-2H-benzo[d]imidazol-2-one] | 9.10 | 10.40 |
| COc1cc(-c2cc3[nH]c(=O)n([C@H]4CC[C@H](NC5COC5)CC4)c3cc2C(C)C)cn2ncnc12 [Example 201, 6-isopropyl-5-(8-methoxy-[1,2,4]triazolo[1,5-a]pyridin-6-yl)-1-((1r,4r)-4-(oxetan-3-ylamino)cyclohexyl)-1,3-dihydro-2H-benzo[d]imidazol-2-one] | 8.68 | 8.81 |
| COc1cc(-c2cc3[nH]c(=O)n([C@H]4CC[C@H](NC(C)C)CC4)c3cc2C(C)C)cn2ncnc12 [Example 203, 6-isopropyl-1-((1r,4s)-4-(isopropylamino)cyclohexyl)-5-(8-methoxy-[1,2,4]triazolo[1,5-a]pyridin-6-yl)-1,3-dihydro-2H-benzo[d]imidazol-2-one] | 8.33 | 8.87 |
| COc1cc(-c2cc3[nH]c(=O)n([C@H]4CC[C@H](N(CC(C)C)CC(C)C)CC4)c3cc2C(C)C)cn2ncnc12 [Example 205, 1-((1r,4r)-4-(diisobutylamino)cyclohexyl)-6-isopropyl-5-(8-methoxy-[1,2,4]triazolo[1,5-a]pyridin-6-yl)-1,3-dihydro-2H-benzo[d]imidazol-2-one] | 8.32 | 8.79 |
| COc1cc(-c2cc3[nH]c(=O)n([C@H]4CC[C@H](NC5CCN(C(C)C)CC5)CC4)c3cc2C(C)C)cn2ncnc12 [Example 207, 6-isopropyl-1-((1r,4r)-4-((1-isopropylpiperidin-4-yl)amino)cyclohexyl)-5-(8-methoxy-[1,2,4]triazolo[1,5-a]pyridin-6-yl)-1,3-dihydro-2H-benzo[d]imidazol-2-one] | 7.62 | 8.38 |
| CCc1cc2c(cc1-c1cc(OC)c3ncnn3c1)[nH]c(=O)n2[C@@H]1CCCN(CCC(C)(C)C)C1 [Example 208, (R)-1-(1-(3,3-dimethylbutyl)piperidin-3-yl)-6-ethyl-5-(8-methoxy-[1,2,4]triazolo[1,5-a]pyridin-6-yl)-1,3-dihydro-2H-benzo[d]imidazol-2-one] | 8.19 | 8.42 |
| COc1cc(-c2cc3[nH]c(=O)n([C@@H]4CCCN(CCC(C)(C)C)C4)c3cc2C(C)C)cn2ncnc12 [Example 210, (R)-1-(1-(3,3-dimethylbutyl)piperidin-3-yl)-6-isopropyl-5-(8-methoxy-[1,2,4]triazolo[1,5-a]pyridin-6-yl)-1,3-dihydro-2H-benzo[d]imidazol-2-one] | 8.54 | 8.48 |
| COc1cc(-c2cc3[nH]c(=O)n([C@@H]4CCCN(CC5CCCC5)C4)c3cc2C(C)C)cn2ncnc12 [Example 211, (R)-1-(1-(cyclopentylmethyl)piperidin-3-yl)-6-isopropyl-5-(8-methoxy-[1,2,4]triazolo[1,5-a]pyridin-6-yl)-1,3-dihydro-2H-benzo[d]imidazol-2-one] | 10.30 | 10.30 |
| CCc1cc2c(cc1-c1cc(OC)c3ncnn3c1)[nH]c(=O)n2[C@@H]1CCCN(C2CCOC2)C1 (stereo partly drawn) [Example 212, 6-ethyl-5-(8-methoxy-[1,2,4]triazolo[1,5-a]pyridin-6-yl)-1-((3R)-1-(tetrahydrofuran-3-yl)piperidin-3-yl)-1,3-dihydro-2H-benzo[d]imidazol-2-one] | 7.60 | 8.36 |
| CCc1cc2c(cc1-c1cc(OC)c3ncnn3c1)[nH]c(=O)n2[C@@H]1CCCN(C2CCOC2)C1 (stereo partly drawn) [Example 213, 6-ethyl-5-(8-methoxy-[1,2,4]triazolo[1,5-a]pyridin-6-yl)-1-((3R)-1-(tetrahydrofuran-3-yl)piperidin-3-yl)-1,3-dihydro-2H-benzo[d]imidazol-2-one] | 7.43 | 8.34 |

More lines, now with the values ahead:

| pIC50 [1] | pIC50 [2] | SMILES |
| --- | --- | --- |
| 8.31 | 9.82 | CCC(CC)CN[C@H]1CC[C@@H](n2c(=O)[nH]c3cc(-c4cn5ncnc5c(C)c4C)c(C(C)C)cc32)CC1 [Example 198] |
| 8.30 | 9.28 | CCCN(CCC)[C@H]1CC[C@@H](n2c(=O)[nH]c3cc(-c4cn5ncnc5c(C)c4C)c(C(C)C)cc32)CC1 [Example 199, 5-(7,8-dimethyl-[1,2,4]triazolo[1,5-a]pyridin-6-yl)-1-((1s,4s)-4-(dipropylamino)cyclohexyl)-6-isopropyl-1,3-dihydro-2H-benzo[d]imidazol-2-one] |
| 8.04 | 9.89 | Cc1c(-c2cc3[nH]c(=O)n([C@H]4CC[C@@H](NCC5CCOCC5)CC4)c3cc2C(C)C)cn2ncnc2c1C [Example 200, 5-(7,8-dimethyl-[1,2,4]triazolo[1,5-a]pyridin-6-yl)-6-isopropyl-1-((1s,4s)-4-(((tetrahydro-2H-pyran-4-yl)methyl)amino)cyclohexyl)-1,3-dihydro-2H-benzo[d]imidazol-2-one] |
| 8.45 | 9.09 | COc1cc(-c2cc3[nH]c(=O)n([C@H]4CC[C@H](N(C)C)CC4)c3cc2C(C)C)cn2ncnc12 [Example 202, 1-((1r,4r)-4-(dimethylamino)cyclohexyl)-6-isopropyl-5-(8-methoxy-[1,2,4]triazolo[1,5-a]pyridin-6-yl)-1,3-dihydro-2H-benzo[d]imidazol-2-one] |
| 8.49 | 8.91 | COc1cc(-c2cc3[nH]c(=O)n([C@H]4CC[C@H](NCC(C)C)CC4)c3cc2C(C)C)cn2ncnc12 [Example 204, 1-((1r,4s)-4-(isobutylamino)cyclohexyl)-6-isopropyl-5-(8-methoxy-[1,2,4]triazolo[1,5-a]pyridin-6-yl)-1,3-dihydro-2H-benzo[d]imidazol-2-one] |
| 8.89 | 9.24 | COc1cc(-c2cc3[nH]c(=O)n([C@H]4CC[C@H](N(CC5CC5)CC5CC5)CC4)c3cc2C(C)C)cn2ncnc12 [Example 206, 1-((1r,4s)-4-(bis(cyclopropylmethyl)amino)cyclohexyl)-6-isopropyl-5-(8-methoxy-[1,2,4]triazolo[1,5-a]pyridin-6-yl)-1,3-dihydro-2H-benzo[d]imidazol-2-one] |
| 8.10 | 7.69 | CCc1cc2c(cc1-c1cc(OC)c3ncnn3c1)[nH]c(=O)n2[C@@H]1CCCN(CC2CCCC2)C1 [Example 209, (R)-1-(1-(cyclopentylmethyl)piperidin-3-yl)-6-ethyl-5-(8-methoxy-[1,2,4]triazolo[1,5-a]pyridin-6-yl)-1,3-dihydro-2H-benzo[d]imidazol-2-one] |
